According to paper PMC9223397 (International Journal of Molecular Sciences, 2022):
pIC50: −log10 of the molar value.

Key:
[1] = test system: NSC34 SOD1^G93A-induced cell death; set-up: method as in PMID 24334165; details: more significant effect at 10 μM; cited from earlier work
[2] = test system: Sig-1R/BiP interaction; assay: BiP/Sig-1R association assay in CHO cells; format: cell-based; details: for Effect on Sig-1R/BiP association: 10 µM
Procedure: The interaction between Sig-1R and the chaperone BiP was used to identify the functional nature (agonistic or antagonistic) of compounds [38]. The assay was conducted by Amylgen according to their standard assay protocol (https://www.amylgen.fr/ (accessed on 15 May 2022)). Each assay condition consisted of six determinations. In brief, CHO cells were treated with compounds at 37 °C for 30 min and lysed. CHO cell lysates were immunoprecipitated with Sig-1R antibody, and coimmunoprecipitated BiP was detected by ELISA assay. In each experiment, untreated control cell lysates were used to assess the maximal level of Sig1R-BiP interaction and represented 100% of Sig1R-BiP association. Cells treated with compounds at the corresponding concentrations were equally processed, and the level of Sig1R-BiP association in those conditions was referred to as the control condition. In this experimental setting, Sig1R agonists were able to reduce the Sig1R-BiP interaction, while antagonists were not.

[3] = test system: spinal α-MNs in SOD1^G93A mice; assay: Spinal MN counts in SOD1G93A mice; format: in vivo, SOD1^G93A male mice; details: 0.25 mg/kg i.p.; 16 weeks of age
Procedure: (§1) The compounds were dissolved in 0.5% hydroxypropyl-methylcellulose (HPMC; H7509, Sigma-Aldrich) in distilled water and were administered by intraperitoneal (i.p.) route twice daily (bid) in a volume of 10 mL/kg. Administrations were given from 30 min after rhizotomy surgery until 42 days post-injury (dpi), the end of the study; in the SOD1^G93A study, treatments were given from 8 to 16 weeks of age (see Figure 6).
(§2) At the end of follow-up (42 dpi for rhizotomy and 16 weeks of age for ALS mice; Figure 6), the animals were deeply anesthetized and transcardially perfused with 4% PFA in PBS. The lumbar spinal cord and the TA muscle were harvested and cryopreserved in 30% sucrose solution in PB. The spinal cords were serially cut in 20 µm thick transverse sections with a cryostat (Leica, Mannheim, Germany). For MN counting, L4-L5 spinal cord sections separated 100 µm were stained for 3 h with an acidified solution of 3.1 mM cresyl violet. MNs were identified by their localization in the lateral ventral horn of the spinal cord and were counted following strict size and morphological criteria: only MNs with a diameter larger than 20 µm, polygonal shape, and prominent nucleoli were counted.

[4] = Plasma levels, SOD1G93A model; format: in vivo, Transgenic SOD1^G93A male mouse; details: SOD1G93A transgenic, plasma, ip; SOD1G93A male mouse, 0.25 mg/kg i.p.; 30 min post-administration; data obtained in a separate study
Procedure: as §1
Plasma levels were determined in the two in vivo models evaluated to be able to associate the pharmacological activity with the levels present in plasma. In the rhizotomy model, the plasma levels were evaluated at Day 42 after surgery and at 15 min after compound administration (0.5 and 5 mg/kg i.p.). […] Plasma samples were assayed by ultraperformance liquid chromatography−triple quadrupole mass spectrometry (UPLC-MS/MS) after plasma protein precipitation. Results are expressed as mean ± standard deviation (n = 8).

[5] = test system: spinal MNs after L4-L5 rhizotomy; assay: MN survival after L4-L5 rhizotomy (cresyl violet MN counts); format: in vivo, female mice (B6SJL); details: 0.25 mg/kg bid i.p., 42 dpi; positive control
Procedure: (§3) Surgeries were performed on three-month-old mice under anesthesia with ketamine-xylazine (100–10 mg/kg i.p.) as previously described. Briefly, the L4-L5 spinal roots were exposed by a small laminectomy on the right side. Afterwards, roots were cut at the exit from the intervertebral foramina, and the root stumps were separated. Mice were cared for until recovery in a warm environment. Analgesia was provided with buprenorphine (0.1 mg/kg) for the next 48 h post-surgery.
as §1, §2

[6] = test system: NMJs of hindlimb muscle in SOD1^G93A mice; assay: Neuromuscular junction innervation in SOD1G93A mice; format: in vivo, SOD1^G93A male mice; details: 0.25 mg/kg i.p.; 16 weeks of age
Procedure: as §1
For neuromuscular junction (NMJ) labeling, 50 µm thick longitudinal sections of TA muscle were serially cut. Sections were blocked with 5% normal donkey serum and incubated with primary antibodies rabbit anti-synaptophysin (1:500; Ab32127, Abcam, Cambridge, UK) and chicken anti-neurofilament 200 (NF200, 1:1000; AB5539, Millipore, Burlington, MS, USA) 48 h at 4 °C. After washes, sections were incubated overnight with secondary antibody Alexa Fluor 594-donkey anti-rabbit and anti-chicken (1:200; A11042-A21207, Invitrogen, USA) and Alexa 488 conjugated α-bungarotoxin (1:500; B13422, Life Technologies, Carlsbad, CA USA). Confocal images were captured (LSM 700 Axio Observer, Carl Zeiss, Jena, Germany, 40xOil/z0.5), and the maximum projection images generated from 1.3 µm z projections. The proportion of innervated NMJs was calculated by classifying each endplate as occupied (when presynaptic terminals overlie the endplate) or vacant (no presynaptic label in contact with the endplate). At least 60 endplates were analyzed per muscle.

[7] = Body weight in SOD1G93A mice; format: in vivo, SOD1^G93A male mice; details: 0.25 mg/kg i.p., 8 to 16 weeks of age
Procedure: as §1

[8] = target: T1, human Sigma-2 receptor (Sig-2R) (Homo sapiens, UniProt Q5BJF2); assay: Human Sig-2R radioligand assay; format: binding; details: [3H]-DTG, transfected HEK-293 Sig-1R knockout membranes
T1 construct: expressed in transfected cells; host or cells: HEK-293 Sig-1R knockout (membranes)
T1 sequence (Q5BJF2 whole entry): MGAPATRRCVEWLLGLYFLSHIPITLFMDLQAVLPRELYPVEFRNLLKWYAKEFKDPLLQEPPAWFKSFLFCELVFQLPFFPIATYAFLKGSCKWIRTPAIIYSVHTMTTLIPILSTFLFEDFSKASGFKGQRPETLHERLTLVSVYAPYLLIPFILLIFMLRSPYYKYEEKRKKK
Procedure: The binding properties of the compounds to the human Sig-2R were similarly studied in transfected HEK-293 Sig-1R knockout membranes using [^3H]-1,3-di-o-tolylguanidine (DTG) (NET-986, PerkinElmer; Boston, USA) as the radioligand. The assay was carried out with 15 μg of membrane suspension, [^3H]-1,3-di-o-tolylguanidine (DTG) (10 nM, 100 μL), in either the absence or presence of either buffer or 10 μM haloperidol for total (TB) and nonspecific (NSB) binding, respectively, or the corresponding compound concentration. Binding buffer contained Tris-HCl (50 mM, pH 7.4). Plates were incubated at 25 °C for 120 min. After incubation, the reaction mix was transferred to MultiScreen HTS, FC plates (Merck Millipore) presoaked in 0.5% polyethyleneimine, and filtered. Following that, plates were washed with ice-cold Tris-HCl (10 mM, pH 8). Filters were dried and counted, and data were processed as above.

[9] = test system: SOD1^G93A mice; assay: Rotarod test in SOD1G93A mice; format: in vivo, SOD1^G93A male mice; details: 0.25 mg/kg i.p.; at 15 and 16 weeks
Procedure: as §1
A rotarod test was performed to evaluate motor coordination and strength. The time that each animal remained on the rotating rod at a speed of 14 rpm was measured for five trials per mouse, and the longest time until falling was recorded; 180 s was chosen as the cut-off time. The test was performed weekly from 8 to 16 weeks of age in SOD1^G93A and WT mice, and disease onset was determined as the first week when each mouse was unable to keep walking for 180 s on the rod.

[10] = test system: microglia and astrocytes in ventral horn after rhizotomy; assay: Glial reactivity after L4-L5 rhizotomy (Iba1, GFAP immunolabeling); format: in vivo, female mice (B6SJL); details: 0.25 mg/kg bid i.p., 42 dpi
Procedure: as §3, §1
(§4) For glial cells immunofluorescence, other lumbar spinal cord sections were blocked with 10% normal donkey serum and incubated overnight with primary antibodies rabbit anti-Iba1 (1:500; 019–19741, Wako) and rat anti-GFAP (1:500; 13-0300, Invitrogen) to label microglia and astroglia, respectively. After several washes, sections were incubated with secondary antibodies Alexa Fluor 488-donkey anti-rat (1:500; A-21208, Invitrogen) or Alexa Fluor 594 donkey anti-rabbit (1:500; A21207, Invitrogen). Finally, sides were mounted with Fluoromount-G. To quantify glial cell reactivity, images of the ventral horn were acquired with an epifluorescence microscope (Nikon Eclipse Ni, Japan) using the same conditions for each analyzed marker. After defining a threshold for background correction, the integrated density of GFAP or Iba1 labeling was measured using ImageJ software.

[11] = Plasma levels, spinal nerve injury (rhizotomy) model; format: in vivo, female mouse; details: plasma, ip; spinal nerve injury female mouse, 0.25 mg/kg i.p.; 30 min post-administration; data obtained in a separate study
Procedure: as §1
Plasma levels were determined in the two in vivo models evaluated to be able to associate the pharmacological activity with the levels present in plasma. […] In the SOD1^G93A model, the plasma levels were evaluated at 16 weeks of age (after 8 weeks of administration) and 15 min after compound administration (5 mg/kg i.p.). Plasma samples were assayed by ultraperformance liquid chromatography−triple quadrupole mass spectrometry (UPLC-MS/MS) after plasma protein precipitation. Results are expressed as mean ± standard deviation (n = 8).

[12] = test system: microglia and astrocytes in ventral horn of SOD1^G93A mice; assay: Glial reactivity in SOD1G93A mice (Iba1, GFAP); format: in vivo, SOD1^G93A male mice; details: 0.25 mg/kg i.p.; 16 weeks of age
Procedure: as §1, §4

| SMILES | NSC34 SOD1G93A-induced cell death [1] | Effect on Sig-1R/BiP association [2] | Reversion of the effect of PRE-084 on Sig-1R/BiP association ([2]; compound 10 µM, PRE-084 10 µM) | Number of surviving spinal α-MNs [3] | concentration at 30 min [4] | Number of spinal MNs ± SEM, ipsilateral ventral horn [5] | Proportion of innervated endplates (NMJ) vs untreated [6] | Body weight vs vehicle group [7] | pIC50 [8] | Rotarod performance vs vehicle [9] | GFAP integrated density ± SEM (astroglial reactivity) [10] | Iba1 integrated density ± SEM (microglial reactivity) [10] | concentration at 30 min [11] | Astrocyte activation (GFAP) [12] |
| --- | --- | --- | --- | --- | --- | --- | --- | --- | --- | --- | --- | --- | --- | --- |
| COc1ccc(CCN2CCN(CCCc3ccccc3)CC2)cc1OC [SA4503] | reduced NSC34 SOD1^G93A-induced cell death in a concentration-dependent manner |  |  |  |  |  |  |  |  |  |  |  |  |  |
| CCCN(CCC)CCc1ccc(OC)c(OCCc2ccccc2)c1 [NE100, reference compound] |  | antagonist effect | able to revert the effect of PRE-084 |  |  |  |  |  |  |  |  |  |  |  |
| O=C(OCCN1CCOCC1)C1(c2ccccc2)CCCCC1 [PRE-084, 2-(4-Morpholinethyl)1-Phenylcyclohexanecarboxylate, reference compound] |  | Agonist effect |  | 12.4 ± 0.9 MNs per section | 2.6 ng/mL | 8.9 ± 0.4 | significantly increased the proportion of innervated endplates | did not cause differences in body weight | < 5.00 | significantly improved the functional outcome | 6 × 10^4 ± 0.9 × 10^4 | 15 × 10^4 ± 1.4 × 10^4 | 3.6 ng/mL | significant decrease in astrocyte activation |
